This is an account of results in ChEMBL document CHEMBL1201862, “PubChem BioAssay data set” (2004).

Assay [1] has as its target T1, RNA-binding protein pos-1 (Caenorhabditis elegans, UniProt G5EF15).
T1 sequence (G5EF15 whole entry): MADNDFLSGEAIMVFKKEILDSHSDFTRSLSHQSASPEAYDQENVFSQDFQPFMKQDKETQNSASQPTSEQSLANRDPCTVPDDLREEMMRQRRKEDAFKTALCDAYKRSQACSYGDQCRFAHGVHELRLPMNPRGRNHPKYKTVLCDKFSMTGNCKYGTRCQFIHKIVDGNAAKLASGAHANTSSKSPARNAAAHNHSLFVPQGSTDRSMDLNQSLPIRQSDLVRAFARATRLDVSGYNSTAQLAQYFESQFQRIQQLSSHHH
The experiment in a line: inhibitors of POS-1/mex-3 RNA binding, dose response, biochemical, fluorescence polarization (AID 1964).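 Note: purified POS-1 fused to maltose binding protein made in E. coli; potency of compounds blocking POS-1 binding to fluorescent RNA.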

The target of assay [2] is T2, Zinc finger protein mex-5 (Caenorhabditis elegans, UniProt Q9XUB2).
T2 sequence (Q9XUB2 whole entry): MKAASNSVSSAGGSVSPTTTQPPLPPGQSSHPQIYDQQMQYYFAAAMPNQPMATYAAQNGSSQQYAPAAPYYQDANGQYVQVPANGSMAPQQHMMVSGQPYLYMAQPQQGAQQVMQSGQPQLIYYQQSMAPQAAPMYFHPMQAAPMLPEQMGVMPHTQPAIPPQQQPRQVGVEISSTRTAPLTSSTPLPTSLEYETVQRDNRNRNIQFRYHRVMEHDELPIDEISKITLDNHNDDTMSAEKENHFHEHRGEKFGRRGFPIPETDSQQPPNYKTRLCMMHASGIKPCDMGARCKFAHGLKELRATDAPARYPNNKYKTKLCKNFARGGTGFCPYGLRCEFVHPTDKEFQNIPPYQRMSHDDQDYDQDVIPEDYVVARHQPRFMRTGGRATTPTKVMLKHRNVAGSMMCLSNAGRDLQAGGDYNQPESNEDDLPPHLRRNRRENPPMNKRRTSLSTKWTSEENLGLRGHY
The assay can be described thus: MEX-5/TCR-2 RNA interaction inhibitors, dose response, biochemical, C. elegans, fluorescence polarization (AID 1960).

The target in assay [3] is Heat shock protein HSP 90-alpha (Homo sapiens, UniProt P07900). The assay can be described thus: Luminescence-based dose response biochemical high throughput screening assay for inhibitors of the Heat Shock Protein 90 (HSP90). [Related pubchem assays: 1831 (Summary AID.), 1846 (Confirmation screen.), 1789 (Primary screen.)].
For assay [4], the target named is Megakaryocyte-associated tyrosine-protein kinase (Homo sapiens, UniProt P42679). The format is functional.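 Note: affinity measured as one member of a kinase panel (Navigating the Kinome) against MATK.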
Assay [5] concerns the target Protein kinase C zeta type (Homo sapiens, UniProt Q05513). The format is functional.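 Note: measured as one member of a broad kinase profiling panel.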
For assay [6], the target named is cGMP-dependent protein kinase 1 (Homo sapiens, UniProt Q13976). The format is functional.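 Note: value from a kinome panel screen with PRKG1 as the panel member.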
The target of assay [7] is Phosphorylase b kinase gamma catalytic chain, liver/testis isoform (Homo sapiens, UniProt P15735). The format is functional.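 Note: PHKG2 measured as one member of a kinome-wide kinase panel.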
The target of assay [8] is Protein kinase C delta type (Homo sapiens, UniProt Q05655). The format is functional.
Assay [9] deals with Ribosomal protein S6 kinase beta-1 (Homo sapiens, UniProt P23443). The format is functional.
Ribosomal protein S6 kinase beta-1, sequence (P23443 whole entry): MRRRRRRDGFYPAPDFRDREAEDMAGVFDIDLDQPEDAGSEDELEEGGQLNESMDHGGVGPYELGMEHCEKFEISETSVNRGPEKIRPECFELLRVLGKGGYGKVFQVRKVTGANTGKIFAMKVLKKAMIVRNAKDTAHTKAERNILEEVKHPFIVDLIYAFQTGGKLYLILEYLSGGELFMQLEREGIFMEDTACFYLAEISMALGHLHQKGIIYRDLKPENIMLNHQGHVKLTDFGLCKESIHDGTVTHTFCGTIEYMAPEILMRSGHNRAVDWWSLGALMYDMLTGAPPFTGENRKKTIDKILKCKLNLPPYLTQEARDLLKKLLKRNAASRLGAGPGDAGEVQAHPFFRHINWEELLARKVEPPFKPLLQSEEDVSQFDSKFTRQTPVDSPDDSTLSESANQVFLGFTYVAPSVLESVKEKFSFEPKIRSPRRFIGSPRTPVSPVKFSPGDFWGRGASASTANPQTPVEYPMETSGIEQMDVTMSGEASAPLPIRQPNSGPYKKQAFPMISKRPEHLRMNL
The target of assay [10] is Serine/threonine-protein kinase D3 (Homo sapiens, UniProt O94806). The format is functional.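 Note: determined within a kinase panel screen, with PRKCN as the panel member.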
The target of assay [11] is Serine/threonine-protein kinase pim-1 (Homo sapiens, UniProt P11309). The format is functional.
The target in assay [12] is MAP kinase-activated protein kinase 2 (Homo sapiens, UniProt P49137). The format is functional.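 Note: measured as one member of a kinome-wide kinase panel.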
Assay [13] addresses Casein kinase II subunit alpha (Homo sapiens, UniProt P68400). The format is functional.
Assay [14] has as its target Casein kinase I isoform gamma-1 (Homo sapiens, UniProt Q9HCP0). The format is functional.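 Note: measured as the CSNK1G1 member of a kinome profiling panel.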
Assay [15] concerns the target Tyrosine-protein kinase ITK/TSK (Homo sapiens, UniProt Q08881). The format is functional.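 Note: affinity for ITK measured as one member of a broad kinase panel profiling binding across the kinome.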
The target of assay [16] is Proto-oncogene tyrosine-protein kinase ROS (Homo sapiens, UniProt P08922). The format is functional.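 Note: ROS1 tested as one member of a kinome-wide kinase panel.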
Proto-oncogene tyrosine-protein kinase ROS, sequence (P08922 whole entry): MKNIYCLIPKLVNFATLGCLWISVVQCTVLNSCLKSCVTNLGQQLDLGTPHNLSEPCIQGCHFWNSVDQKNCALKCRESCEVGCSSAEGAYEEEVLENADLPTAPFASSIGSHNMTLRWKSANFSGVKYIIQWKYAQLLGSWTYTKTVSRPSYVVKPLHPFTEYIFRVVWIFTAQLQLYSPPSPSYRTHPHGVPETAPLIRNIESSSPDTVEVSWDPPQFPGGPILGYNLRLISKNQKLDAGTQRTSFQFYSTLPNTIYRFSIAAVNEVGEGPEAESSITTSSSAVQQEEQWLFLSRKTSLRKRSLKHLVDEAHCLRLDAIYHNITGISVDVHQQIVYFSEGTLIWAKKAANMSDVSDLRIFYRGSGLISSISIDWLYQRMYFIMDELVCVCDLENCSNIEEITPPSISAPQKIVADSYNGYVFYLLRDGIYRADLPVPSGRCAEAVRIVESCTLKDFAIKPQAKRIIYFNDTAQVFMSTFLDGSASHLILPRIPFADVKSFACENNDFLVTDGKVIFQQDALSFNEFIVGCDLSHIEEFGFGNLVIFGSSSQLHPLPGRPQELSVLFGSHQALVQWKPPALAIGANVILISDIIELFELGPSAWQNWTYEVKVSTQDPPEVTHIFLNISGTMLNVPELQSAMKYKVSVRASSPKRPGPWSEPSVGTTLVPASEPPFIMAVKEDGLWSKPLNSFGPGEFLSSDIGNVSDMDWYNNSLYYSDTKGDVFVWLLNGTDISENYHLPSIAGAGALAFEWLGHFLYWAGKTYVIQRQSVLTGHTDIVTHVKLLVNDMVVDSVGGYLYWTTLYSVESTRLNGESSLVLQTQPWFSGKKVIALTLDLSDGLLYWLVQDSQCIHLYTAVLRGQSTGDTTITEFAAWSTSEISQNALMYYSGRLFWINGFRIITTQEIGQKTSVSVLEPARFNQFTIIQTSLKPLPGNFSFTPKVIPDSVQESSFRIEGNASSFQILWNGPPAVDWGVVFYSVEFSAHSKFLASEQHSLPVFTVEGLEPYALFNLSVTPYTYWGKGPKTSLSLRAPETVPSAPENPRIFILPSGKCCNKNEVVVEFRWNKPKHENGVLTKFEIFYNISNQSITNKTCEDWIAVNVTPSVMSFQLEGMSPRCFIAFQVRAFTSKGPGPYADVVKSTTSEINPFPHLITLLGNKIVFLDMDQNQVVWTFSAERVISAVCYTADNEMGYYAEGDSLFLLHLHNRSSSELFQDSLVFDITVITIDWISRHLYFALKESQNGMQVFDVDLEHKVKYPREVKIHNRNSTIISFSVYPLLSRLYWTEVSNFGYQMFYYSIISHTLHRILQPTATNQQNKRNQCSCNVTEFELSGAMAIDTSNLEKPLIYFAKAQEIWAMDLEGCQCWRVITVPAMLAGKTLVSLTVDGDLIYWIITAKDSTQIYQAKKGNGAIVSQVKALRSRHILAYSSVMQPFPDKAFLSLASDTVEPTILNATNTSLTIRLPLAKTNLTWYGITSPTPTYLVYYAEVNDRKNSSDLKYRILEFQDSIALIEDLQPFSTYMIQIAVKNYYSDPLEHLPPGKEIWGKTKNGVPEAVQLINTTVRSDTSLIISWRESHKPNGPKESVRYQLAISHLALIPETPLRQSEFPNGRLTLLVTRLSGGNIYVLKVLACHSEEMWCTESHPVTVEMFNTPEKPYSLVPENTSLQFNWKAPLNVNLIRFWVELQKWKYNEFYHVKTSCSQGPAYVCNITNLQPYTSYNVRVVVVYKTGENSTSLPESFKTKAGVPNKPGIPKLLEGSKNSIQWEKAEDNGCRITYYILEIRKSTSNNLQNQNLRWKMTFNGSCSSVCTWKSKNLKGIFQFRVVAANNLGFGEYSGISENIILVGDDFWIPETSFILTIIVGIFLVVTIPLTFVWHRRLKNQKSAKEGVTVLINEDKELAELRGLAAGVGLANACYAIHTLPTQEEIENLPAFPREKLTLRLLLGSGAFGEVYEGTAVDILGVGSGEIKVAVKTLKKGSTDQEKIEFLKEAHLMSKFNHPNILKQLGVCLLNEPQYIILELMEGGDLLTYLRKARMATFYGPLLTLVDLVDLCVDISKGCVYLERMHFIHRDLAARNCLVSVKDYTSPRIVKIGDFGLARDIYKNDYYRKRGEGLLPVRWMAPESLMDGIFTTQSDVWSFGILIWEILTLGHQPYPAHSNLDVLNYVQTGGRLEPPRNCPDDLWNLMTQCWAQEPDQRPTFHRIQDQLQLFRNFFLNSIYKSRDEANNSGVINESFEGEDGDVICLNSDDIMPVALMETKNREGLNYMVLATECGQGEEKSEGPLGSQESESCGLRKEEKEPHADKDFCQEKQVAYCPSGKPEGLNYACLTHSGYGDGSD
Assay [17] addresses Serine/threonine-protein kinase pim-3 (Homo sapiens, UniProt Q86V86). The format is functional.
For assay [18], the target named is Non-receptor tyrosine-protein kinase TYK2 (Homo sapiens, UniProt P29597). The format is functional.
In assay [19] the target is Receptor tyrosine-protein kinase erbB-2 (Homo sapiens, UniProt P04626). The experiment in a line: Navigating the Kinome. Panel member name: ERBB2. The format is functional.
Assay [20] concerns the target MAP kinase-activated protein kinase 3 (Homo sapiens, UniProt Q16644). The format is functional.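 Note: value comes from a kinome-wide profiling panel in which MAPKAPK3 is one of the panel members.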
Assay [21] deals with Casein kinase I isoform delta (Homo sapiens, UniProt P48730). The format is functional.
Assay [22] deals with Tyrosine-protein kinase ABL1 (Homo sapiens, UniProt P00519). The format is functional.
In assay [23] the target is MAP kinase-interacting serine/threonine-protein kinase 2 (Homo sapiens, UniProt Q9HBH9). The format is functional.
Assay [24] concerns the target Cyclin-dependent kinase 5 (Homo sapiens, UniProt Q00535). The format is functional.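 Note: CDK5 measured as one member of a kinase profiling panel.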
A further assay addresses Misshapen-like kinase 1 (Homo sapiens, UniProt Q8N4C8). The format is functional.
For assay [25], the target named is Serine/threonine-protein kinase Nek4 (Homo sapiens, UniProt P51957). The format is functional.
Serine/threonine-protein kinase Nek4, sequence (P51957 whole entry): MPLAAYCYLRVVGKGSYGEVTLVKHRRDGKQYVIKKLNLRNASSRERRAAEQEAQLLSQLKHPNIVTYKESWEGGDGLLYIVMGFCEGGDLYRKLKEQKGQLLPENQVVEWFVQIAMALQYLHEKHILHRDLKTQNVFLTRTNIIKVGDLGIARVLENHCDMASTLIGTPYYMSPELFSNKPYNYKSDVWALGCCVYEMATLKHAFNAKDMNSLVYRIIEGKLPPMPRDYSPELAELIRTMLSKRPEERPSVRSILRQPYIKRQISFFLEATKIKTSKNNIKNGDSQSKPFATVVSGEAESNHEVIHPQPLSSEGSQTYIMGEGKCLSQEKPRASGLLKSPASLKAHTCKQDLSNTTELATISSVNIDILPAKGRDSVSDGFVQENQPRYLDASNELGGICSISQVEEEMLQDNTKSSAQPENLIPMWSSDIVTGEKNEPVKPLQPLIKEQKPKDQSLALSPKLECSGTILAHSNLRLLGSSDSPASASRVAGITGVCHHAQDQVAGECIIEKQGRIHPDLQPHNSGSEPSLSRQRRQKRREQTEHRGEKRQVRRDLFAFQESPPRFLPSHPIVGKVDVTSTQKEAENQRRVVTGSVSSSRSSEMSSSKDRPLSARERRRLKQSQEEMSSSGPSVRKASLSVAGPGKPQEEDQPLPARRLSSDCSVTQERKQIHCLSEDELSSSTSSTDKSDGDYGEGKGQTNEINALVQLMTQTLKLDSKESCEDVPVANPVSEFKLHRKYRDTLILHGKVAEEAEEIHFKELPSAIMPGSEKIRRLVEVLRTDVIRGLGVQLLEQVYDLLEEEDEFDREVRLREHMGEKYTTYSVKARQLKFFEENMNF
The target of assay [26] is Dual specificity tyrosine-phosphorylation-regulated kinase 4 (Homo sapiens, UniProt Q9NR20). The format is functional.
Assay [27] addresses Interleukin-1 receptor-associated kinase 1 (Homo sapiens, UniProt P51617). The format is functional.
Assay [28] concerns the target Interleukin-1 receptor-associated kinase 4 (Homo sapiens, UniProt Q9NWZ3). The format is functional.
In assay [29] the target is Rho-associated protein kinase 1 (Homo sapiens, UniProt Q13464). The format is functional.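 Note: measured within a broad kinome-wide panel profiling many kinases.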
The target in assay [30] is Calcium/calmodulin-dependent protein kinase type 1 (Homo sapiens, UniProt Q14012). The format is functional.
Assay [31] concerns the target Serine/threonine-protein kinase Nek2 (Homo sapiens, UniProt P51955). The format is functional.
Assay [32] has as its target Glycogen synthase kinase-3 beta (Homo sapiens, UniProt P49841). The format is functional.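 Note: value comes from a broad kinome profiling panel, with GSK3B as the panel member.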
For assay [33], the target named is Cyclin-dependent kinase 9 (Homo sapiens, UniProt P50750). The format is functional.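 Note: value from the CDK9 entry of a kinome-spanning kinase panel.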
Cyclin-dependent kinase 9, sequence (P50750 whole entry): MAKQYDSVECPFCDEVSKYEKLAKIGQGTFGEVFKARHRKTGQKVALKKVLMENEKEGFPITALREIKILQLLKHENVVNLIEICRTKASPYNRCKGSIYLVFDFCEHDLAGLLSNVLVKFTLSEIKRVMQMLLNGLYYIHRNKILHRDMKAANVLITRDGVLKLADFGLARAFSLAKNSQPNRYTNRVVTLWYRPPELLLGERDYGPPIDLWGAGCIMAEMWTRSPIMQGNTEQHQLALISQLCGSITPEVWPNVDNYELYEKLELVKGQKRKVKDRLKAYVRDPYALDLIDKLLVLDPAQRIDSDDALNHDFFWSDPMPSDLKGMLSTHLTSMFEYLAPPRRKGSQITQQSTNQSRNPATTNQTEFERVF
Assay [34] addresses Serine/threonine-protein kinase BRSK1 (Homo sapiens, UniProt Q8TDC3). The format is functional.

Calls of active or inactive are those of the source. Where only a bound is given, the exact number is not on record here.

Interleukin-1 receptor-associated kinase 1, sequence (P51617 whole entry): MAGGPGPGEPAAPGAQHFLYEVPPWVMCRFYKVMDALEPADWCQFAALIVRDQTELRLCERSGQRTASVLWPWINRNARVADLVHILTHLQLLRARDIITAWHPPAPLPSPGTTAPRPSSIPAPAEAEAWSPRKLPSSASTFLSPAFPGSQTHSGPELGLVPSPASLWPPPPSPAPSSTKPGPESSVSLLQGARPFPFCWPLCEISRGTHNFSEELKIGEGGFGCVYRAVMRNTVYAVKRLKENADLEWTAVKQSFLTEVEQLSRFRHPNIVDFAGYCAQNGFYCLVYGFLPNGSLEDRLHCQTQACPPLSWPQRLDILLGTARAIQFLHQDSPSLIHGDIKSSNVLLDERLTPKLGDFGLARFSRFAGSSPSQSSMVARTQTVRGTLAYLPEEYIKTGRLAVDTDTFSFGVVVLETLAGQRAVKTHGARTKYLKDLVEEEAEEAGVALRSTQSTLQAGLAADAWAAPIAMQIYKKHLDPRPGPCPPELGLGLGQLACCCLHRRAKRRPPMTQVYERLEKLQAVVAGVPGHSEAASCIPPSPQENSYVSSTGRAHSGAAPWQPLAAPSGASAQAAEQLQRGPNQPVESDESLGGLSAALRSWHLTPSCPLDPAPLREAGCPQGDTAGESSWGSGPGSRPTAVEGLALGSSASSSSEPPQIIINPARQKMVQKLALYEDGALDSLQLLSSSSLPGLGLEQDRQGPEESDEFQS
Cyclin-dependent kinase 5, sequence (Q00535 whole entry): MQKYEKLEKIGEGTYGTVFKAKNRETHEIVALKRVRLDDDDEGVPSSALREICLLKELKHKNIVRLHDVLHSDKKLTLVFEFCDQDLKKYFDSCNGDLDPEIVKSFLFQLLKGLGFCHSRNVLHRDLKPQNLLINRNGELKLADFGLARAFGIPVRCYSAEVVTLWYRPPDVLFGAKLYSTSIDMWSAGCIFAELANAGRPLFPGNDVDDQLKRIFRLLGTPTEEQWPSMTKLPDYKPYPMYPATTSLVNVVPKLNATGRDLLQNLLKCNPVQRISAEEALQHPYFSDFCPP

Take `Cc1ccc(/C=C2/C(=O)c3ccc(C(=O)O)cc3C2=O)o1`: the values for the EC50 in assay [1] and in assay [2] were 87.7 µM (active) and 63.6 µM (active), respectively. Also, the half-inhibitory concentration (IC50) in assay [3] is 1.65 µM (active).

For `Clc1cc(NC2CCCCC2)nc(-c2c[nH]c3ncccc23)n1`, the Ki in assay [4] was > 2 µM (inactive); in assay [5], 1.26 µM (active); in assay [6], 0.501 µM (active); in assay [7], > 5.01 µM (inactive); in assay [8] it was 0.316 µM (active); in assay [9], 0.501 µM (active). Also, the Ki in [10] is > 2.51 µM (inactive); in [11] it was > 3.98 µM (inactive); in assay [12], 2.51 µM (active); in assay [13] it was 0.251 µM (active); in assay [14] it was 2.51 µM (active); in [15], > 1.58 µM (inactive). For the same compound, the inhibitory constant (Ki) in [16] is 0.2 µM (active); in assay [17], 6.31 µM (active); in [18], 1.58 µM (active); in [19], > 1.58 µM (inactive); in assay [20], > 10 µM (inactive); in [21], 1.26 µM (active). The Ki is > 0.631 µM (inactive) in [22]; 1.26 µM (active) in assay [23]; > 3.98 µM (inactive) in assay [24]; 0.00631 µM (active) at Misshapen-like kinase 1; 2.51 µM (active) in assay [25]; 1.26 µM (active) in assay [26]. Besides, the Ki was 2.51 µM (active) in assay [27]; 1.26 µM (active) in assay [28]; > 0.1 µM (inactive) in [29]; > 1 µM (inactive) in assay [30]; 6.31 µM (active) in [31]; 1.26 µM (active) in assay [32]. The Ki was > 3.98 µM (inactive) in [33] and 2 µM (active) in assay [34].
